Laboratory results published in PubChem BioAssay AID1963438 (Molecular Pharmacology Branch, DTP, NCI, 2024).
pIC50: −log10 of the molar value.

System: NCI-H510 multicellular tumor spheroid growth, % test/control
Assay: Anticancer human tumor NCI-H510 cell line growth inhibition [Asc];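 also: spheroids exposed to agents for 7 days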;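 as to viability, T/C: 100% = DMSO vehicle control wells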
Details: for pIC50: curve of first compound; for viability, T/C: stronger effect = lower value
Experimental: Multicellular complex tumor spheroid response to apoptosis pathway targeting inhibitors Alrizomadlin, Pelcitoclax, and Dasminapant in combination with a variety of drugs and investigational agents in selected tumor cell lines
The MDM2 inhibitor alrizomadlin, the Bcl-2/Bcl-xL inhibitor pelcitoclax, and the IAPs inhibitor dasminapant were evaluated both individually and in combination with standard of care and investigational anticancer small molecules within a complex spheroid model of solid tumors. . Complex spheroids include a stromal component modeled by human endothelial cells (HUVEC) and fibroblasts modeled by human mesenchymal stem cells (MSCs). The concentration ranges selected for each drug and investigational agent were based upon clinically achievable concentrations if the clinical Cmax of the agent was known.
Compounds. The drugs and investigational agents: alrizomadlin (APG-115; NSC831270), pelcitoclax (APG-1252; NSC835773), dasminapant (APG-1387;NSC834197), TAK-243 (NSC785004), copanlisib (NSC809693), olaparib (NSC753686), talazoparib (NSC767125), cobimetinib (NSC 768068), eltanexor (KPT-8602, NSC 794443), abemaciclib (NSC 768073), sotorasib (NSC818433), adagrasib (NSC 831453), MRTX-1133 (NSC 836407), Iadademestat (ORY1001, NSC 806812), and RMC-4630 (NSC839698), were obtained from the NCI Developmental Therapeutics Program Chemical Repository. The FDA-approved anticancer drug set is available from the Developmental Therapeutics Program at https://dtp.cancer.gov/organization/dscb/obtaining/available plates.htm. […] The stock solutions were prepared in dimethyl sulfoxide (DMSO, Sigma-Aldrich, St. Louis, MO, cat. D2650) at 800-fold the tested concentration and stored at -70 degrees C prior to their use. All drugs and investigational agents were tested over a range starting from a high concentration at or near the clinical Cmax and decreasing in half-log increments. If the clinical Cmax for an agent had not been determined, the highest concentration tested was 10 microM.
The patient-derived cancer (PDC) cell lines include five colon adenocarcinomas: 186277-243-T-J2-PDC, 616215-338-R-J1-PDC, 439559-082-T-J2-PDC, 463943-066-T-J2-PDC, and 519858-162-T-J1-PDC; three pancreatic carcinomas: 323965-272-R-J2-PDC, 521955-158-R6-J3-PDC, and 521955-158-R2-J5-PDC; two uterine sarcomas: 327498-152-R-J2-PDC and 993429-296-R-J1-PDC; two rhabdomyosarcomas: 755483-174-R-J1-PDC and 772245-204-R-J1-PDC; two soft tissue sarcomas: 126254-015-R-J1-PDC and 494315-158-R-J1-PDC; two malignant fibrous histiocytomas: 317291-083-R-J1-PDC and 596521-263-R-J1-PDC; two breast carcinomas: 171881-019-R-J1-PDC and 885512-296-R-J2-PDC; and one ovarian carcinoma: 6556581-035-R-J-PDC were obtained from the NCI PDMR, (https://pdmr.cancer.gov). The established cell lines HSSY-2 synovial sarcoma (RRID:CVCL 8719), SYO-1 synovial sarcoma (RRID:CVCL_7146), MPNST malignant peripheral neural sheath tumor were obtained from the Sloan Kettering Institute. The following established cell lines were purchased from the American Type Culture Collection (ATCC, Manassas, VA), Sor the received from the NCI repository:, PANC-1 pancreatic carcinoma (CRL-1469, RRID:CVCL_0480), OVCAR-5 ovarian carcinoma (RRID:CVCL_1628), OVCAR-8 ovarian carcinoma (RRID:CVCL_1629), , MCF-7 breast carcinoma (CRL-12584, RRID:CVCL_0031), MDA-MB-231 breast carcinoma (CRL-12532, RRID:CVCL_0062), NCI-H1876 small cell lung carcinoma (CRL-5902, RRID:CVCL_1503), NCI-H510A small cell lung carcinoma (HTB-184, RRID:CVCL_1565), NCI-H1417 (CRL-5869, RRID:CVCL_1469), and NCI-H196 small cell lung carcinoma (CRL-5823, RRID:CVCL_1509). Dr. Peter Houghton (Greehey Children's Cancer Research Institute, University of Texas Health Science Center, San Antonio, TX) provided Rh-18 rhabdomyosarcoma (RRID:CVCL_1659). Pooled donor human umbilical vein endothelial cells (HUVEC, Lonza, cat. CC-2519) and human mesenchymal stem cells (hMSC, Lonza, cat. PT-2501) were purchased from Lonza (Walkersville, MD).
Cell Culture. […]

Cn1ncnc1[C@H]1c2n[nH]c(=O)c3cc(F)cc(c23)N[C@@H]1c1ccc(F)cc1 + CCN1C(C(=O)NC23CCC(C(=O)O)(CC2)CC3)C(c2cccc(Cl)c2F)C2(C(=O)Nc3cc(Cl)ccc32)C12CCCCC2 gave a pIC50 (second compound 0.03 µM) of 8.11, a pIC50 (second compound 0.0949 µM) of 8.04 and a pIC50 (second compound 0.3 µM) of 7.81. The pIC50 (second compound 0.949 µM) was 7.98, the pIC50 (second compound 3 µM) was 7.87 and the viability, T/C (second compound 0.03 µM, first compound 0.000316 µM) was 114%. The viability, T/C (second compound 0.03 µM, first compound 0.001 µM) was 93.8%, the viability, T/C (second compound 0.03 µM, first compound 0.00316 µM) was 77.3% and the viability, T/C (second compound 0.03 µM, first compound 0.01 µM) was 49.5%. For the same compound, the viability, T/C (second compound 0.03 µM, first compound 0.0316 µM) was 6.92%, the viability, T/C (second compound 0.03 µM, first compound 0.1 µM) was 18.1% and the viability, T/C (second compound 0.0949 µM, first compound 0.000316 µM) was 105%. It also gave a viability, T/C (second compound 0.0949 µM, first compound 0.001 µM) of 97.6%, a viability, T/C (second compound 0.0949 µM, first compound 0.00316 µM) of 95.4% and a viability, T/C (second compound 0.0949 µM, first compound 0.01 µM) of 45.4%. It also gave a viability, T/C (second compound 0.0949 µM, first compound 0.0316 µM) of 14.7%, a viability, T/C (second compound 0.0949 µM, first compound 0.1 µM) of 10.9% and a viability, T/C (second compound 0.3 µM, first compound 0.000316 µM) of 104%. The viability, T/C (second compound 0.3 µM, first compound 0.001 µM) was 128%, the viability, T/C (second compound 0.3 µM, first compound 0.00316 µM) was 96.6% and the viability, T/C (second compound 0.3 µM, first compound 0.01 µM) was 75.8%. The viability, T/C (second compound 0.3 µM, first compound 0.0316 µM) was 9.76%, the viability, T/C (second compound 0.3 µM, first compound 0.1 µM) was 5.7% and the viability, T/C (second compound 0.949 µM, first compound 0.000316 µM) was 92.5%. It also gave a viability, T/C (second compound 0.949 µM, first compound 0.001 µM) of 118%, a viability, T/C (second compound 0.949 µM, first compound 0.00316 µM) of 100% and a viability, T/C (second compound 0.949 µM, first compound 0.01 µM) of 50.9%. The viability, T/C (second compound 0.949 µM, first compound 0.0316 µM) was 13.4%, the viability, T/C (second compound 0.949 µM, first compound 0.1 µM) was 7.16% and the viability, T/C (second compound 3 µM, first compound 0.000316 µM) was 109%. The viability, T/C (second compound 3 µM, first compound 0.001 µM) was 88.8%, the viability, T/C (second compound 3 µM, first compound 0.00316 µM) was 102% and the viability, T/C (second compound 3 µM, first compound 0.01 µM) was 64%. The viability, T/C (second compound 3 µM, first compound 0.0316 µM) was 6.31% and the viability, T/C (second compound 3 µM, first compound 0.1 µM) was 10.2%.
